Experimental data published in patent US20230002324A1, “NAPHTHOQUINONE DERIVATIVES FOR TREATMENT OF OXIDATIVE STRESS DISORDERS” (PTC THERAPEUTICS, INC., priority 2019, published 2023).

Legend:
Type in all cases: cell-based
[1] = system: Q7 cells (ST HDH Q7/7; immortalized mouse striatal cells); experiment: Q7 Cystine Deprivation cell survival (rescue) assay; conditions: 18 h, read-out: Q7 Cystine Deprivation Survival EC50
Text: (§1) In neuronal cells excess extracellular glutamate inhibits the cystine/glutamate antiporter leading to intracellular cysteine depletion, GSH depletion, reactive oxygen species (ROS) production and cell death, a phenomenon termed oxidative glutamate toxicity, oxytosis, or ferroptosis. […] Q7 cells (ST HDH Q7/7; immortalized mouse striatal cells) challenged with cystine-free media or the selective, irreversible GPX4 inhibitor, methyl (1S,3R)-2-(2-chloroacetyl)-1-(4-(methoxycarbonyl)phenyl)-2,3,4,9-tetrahydro-1H-pyrido[3,4-b]indole-3-carboxylate (hereafter referred to as RSL3), recapitulate this phenotype, as do normal human fibroblasts (NHF) challenged with RSL3. An initial screen was performed to identify compounds effective in rescuing Q7 and/or NHF cells from death resulting from cystine deprivation or RSL3 challenge. This method is further described in Yonezawa et al., J. Neurochem 67, 566-573 (1996), Li et al., J Neurosci., 23, 5816-5826 (2003), Yang and Stockwell, Chem Biol., 15: 234-45 (2008), and Yang et al., Cell 156, 317-331 (2014). See also Hinman A, Holst C R, Latham J C, et al. Vitamin E hydroquinone is an endogenous regulator of ferroptosis via redox control of 15-lipoxygenase. PLoS One. 2018; 13(8):e0201369. Published 2018 Aug. 15. doi:10.1371/journal.pone.0201369; and Kahn-Kirby A H, Amagata A, Maeder C I, et al. Targeting ferroptosis: A novel therapeutic strategy for the treatment of mitochondrial disease-related epilepsy. PLoS One. 2019; 14(3):e0214250. Published 2019 Mar. 28. doi:10.1371/journal.pone.0214250.
(§2) DMEM (Catalog no. 11995-040), DMEM without Cystine (Catalog no. 21013-024), DMEM without Glucose (Catalog A1443001), PBS (Phosphate buffered saline), Penicillin-streptomycin mix, L-Glutamine, Glucose, Phenol Red, and Pyruvate were purchased from ThermoFisher Scientific (Gibco). Fetal Bovine Serum was obtained from Mediatech, Inc., or Sigma Aldrich. Mouse striatum derived ST HDH Q7/7 (Q7) and normal human skin fibroblast (NHF, product number GM21811) cells were obtained from the Coriell Institute. Methionine and Vitamin K2 were purchased from Sigma Aldrich. RSL3 was synthesized as previously described (see e.g. US Patent Publication US2010/0081654). Cell Titer Glo 2.0 was purchased from Promega. Q7 cell culture medium (Q7 growth medium) was made by combining 50 mL Fetal Bovine Serum, 100 U/mL penicillin, and 100 microgram/mL streptomycin; DMEM was added to make the volume up to 500 mL. Assay medium for the Cystine Deprivation assay was prepared by combining 50 mL Fetal Bovine Serum, 100 U/mL penicillin, 100 microgram/mL streptomycin, 4 mM L-Glutamine, 1 mM Pyruvate and 30 mg/L Methionine; DMEM without Cystine was added to make the volume up to 500 mL. NHF cell culture medium (NHF growth medium) was made by combining 50 mL Fetal Bovine Serum, 100 U/mL penicillin, 100 microgram/mL streptomycin, 2.8 mL 20% Glucose solution (final concentration 6 mM), L-glutamine (final concentration 2 mM), phenol red (final concentration 15 mg/L); DMEM without Glucose was added to make the volume up to 500 mL. Assay medium for the RSL3 challenge assay was identical to Growth medium. While not in use during the course of the experiments, these solutions were stored at 4° C. The cells were grown in 150-cm^2 tissue culture-treated flasks. Every third or fourth day, the cells were sub-cultured by trypsinization and re-seeded at a cell density of 600,000 (Q7) or 300,000 (NHF) cells per flask.
(§3) Q7 or NHF cells were cultured routinely as described herein. For 384-well cell survival assays, cells were seeded in clear bottom, black wall 384-well tissue culture-treated polystyrene plates by re-suspending a cell suspension at a density of 50,000 cells/mL in growth medium, then dispensing 60 microliters of cell suspension per well using either an electronic multichannel pipette or a Multidrop™ Combi Reagent Dispenser (ThermoFisher Scientific), corresponding to 3,000 cells/well. […]

[2] = system: normal human fibroblasts (NHF, GM21811); experiment: NHF GM21811 RSL3 challenge cell survival (rescue) assay; conditions: Fibroblast, NHF cells, RSL3 2 micromolar, 48 h, Cell Titer Glo, read-out: NHF GM21811 RSL3 Survival EC50
Text: as §1, §2, §3

[3] = system: Q7 cells (ST HDH Q7/7; immortalized mouse striatal cells); experiment: Q7 RSL3 challenge cell survival (rescue) assay; conditions: 18 h, read-out: Q7 RSL3 Survival EC50
Text: as §1, §2, §3

[4] = Q7 cells, cystine-free medium, Cell Titer Glo, 50% relative viability vs Vitamin K2 (1 micromolar)
[5] = Q7 cells, RSL3 2 micromolar, Cell Titer Glo

Structure (SMILES)	EC50 [2] [nM]	EC50 [3, 5] [nM]	further results
CC1=C(Cc2ccc(C(F)(F)F)cn2)C(=O)c2ccc(F)cc2C1=O [Example 44, 6-fluoro-3-methyl-2-((5-(trifluoromethyl)pyridin-2-yl)methyl)naphthalene-1,4-dione]	< 50	–	EC50 [1, 4]: < 50 nM
CC1=C(Cc2ccc(C(F)(F)F)cn2)C(=O)c2ccc(Cl)cc2C1=O [Example 59, 6-chloro-3-methyl-2-[[5-(trifluoromethyl)-2-pyridyl]methyl]naphthalene-1,4-dione]	–	< 50	–
CC1=C(Cc2ccc(F)cn2)C(=O)c2cc(F)ccc2C1=O [Example 47, 6-fluoro-3-((5-fluoropyridin-2-yl)methyl)-2-methylnaphthalene-1,4-dione]	–	< 50	EC50 [1, 4]: < 50 nM
Cc1c(Cc2ccc(C(F)(F)F)cn2)c(O)c2ccccc2c1O [Example 131, 2-methyl-3-((5-(trifluoromethyl)pyridin-2-yl)methyl)naphthalene-1,4-diol]	–	–	EC50 [1]: < 50 nM; EC50 [3]: < 50 nM
CC1=C(Cc2ccc(C(F)(F)F)cn2)C(=O)c2cc(F)cc(F)c2C1=O [Example 49, 5,7-difluoro-3-methyl-2-((5-(trifluoromethyl)pyridin-2-yl)methyl)naphthalene-1,4-dione]	–	< 50	EC50 [1, 4]: < 50 nM
CC1=C(Cc2ccc(C(F)(F)F)cn2)C(=O)c2cc(C)ccc2C1=O [Example 42, 2,6-dimethyl-3-((5-(trifluoromethyl)pyridin-2-yl)methyl)naphthalene-1,4-dione]	< 50	–	EC50 [1, 4]: < 50 nM
CC1=C(Cc2ccc(C(F)(F)F)cn2)C(=O)c2cc(C(F)(F)F)ccc2C1=O [Example 53, 2-methyl-6-(trifluoromethyl)-3-((5-(trifluoromethyl)pyridin-2-yl)methyl)naphthalene-1,4-dione]	–	50 to 250	EC50 [1, 4]: 50 to 250 nM
CC1=C(Cc2ccc(C(F)(F)F)cn2)C(=O)c2c(F)cc(F)cc2C1=O [Example 50, 5,7-difluoro-2-methyl-3-((5-(trifluoromethyl)pyridin-2-yl)methyl)naphthalene-1,4-dione]	–	< 50	EC50 [1, 4]: < 50 nM
CC1=C(Cc2ccc(C(F)(F)F)c(C#N)n2)C(=O)c2c(F)c(F)cc(F)c2C1=O [Example 130, 6-((5,7,8-trifluoro-3-methyl-1,4-dioxo-1,4-dihydronaphthalen-2-yl)methyl)-3-(trifluoromethyl)picolinonitrile]	–	> 1000	–
CC1=C(Cc2ccc(C(F)(F)F)cn2)C(=O)c2cc(C)c(C)cc2C1=O [Example 43, 2,6,7-trimethyl-3-((5-(trifluoromethyl)pyridin-2-yl)methyl)naphthalene-1,4-dione]	–	250 to 1000	EC50 [1, 4]: 50 to 250 nM
CCCC1=C(Cc2ccc(C(F)(F)F)c(C#N)n2)C(=O)c2c(F)ccc(F)c2C1=O [Example 85, 6-((5,8-difluoro-1,4-dioxo-3-propyl-1,4-dihydronaphthalen-2-yl)methyl)-3-(trifluoromethyl)picolinonitrile]	–	< 50	–
CCC1=C(Cc2ccc(C(F)(F)F)cn2)C(=O)c2c(ccc(F)c2F)C1=O [Example 63, 2-ethyl-5,6-difluoro-3-((5-(trifluoromethyl)pyridin-2-yl)methyl)naphthalene-1,4-dione]	< 50	–	–
CCC1=C(Cc2cc(C)c(F)cn2)C(=O)c2c(F)ccc(F)c2C1=O [Example 135, 2-ethyl-5,8-difluoro-3-((5-fluoro-4-methylpyridin-2-yl)methyl)naphthalene-1,4-dione]	< 50	–	–
CCC1=C(Cc2cc(C(F)(F)F)c(OC)cn2)C(=O)c2ccccc2C1=O [Example 147, 2-ethyl-3-((5-methoxy-4-(trifluoromethyl)141yridine-2-yl)methyl)naphthalene-1,4-dione]	< 50	–	–
[2H]C([2H])([2H])C1=C(C([2H])([2H])c2ccc(C(F)(F)F)cn2)C(=O)c2ccccc2C1=O [Example 22, 2-(methyl-d3)-3-((5-(trifluoromethyl)pyridin-2-yl)methyl-d2)naphthalene-1,4-dione]	–	< 50	–
CCC1=C(Cc2ccc(C(C)(F)F)cn2)C(=O)c2ccccc2C1=O [Example 137, 2-((5-(1,1-difluoroethyl)pyridin-2-yl)methyl)-3-ethylnaphthalene-1,4-dione]	< 50	–	–
CCC1=C(Cc2ccc(OC(F)(F)F)cn2)C(=O)c2c(F)ccc(F)c2C1=O [Example 138, 2-ethyl-5,8-difluoro-3-((5-(trifluoromethoxy)pyridin-2-yl)methyl)naphthalene-1,4-dione]	< 50	–	–
CC1=C(Cc2ccc(C(F)(F)F)cn2)C(=O)c2cc(Cl)cc(Cl)c2C1=O [Example 58, 5,7-dichloro-3-methyl-2-[[5-(trifluoromethyl)-2-pyridyl]methyl]naphthalene-1,4-dione]	–	–	EC50 [3]: < 50 nM
CCC1=C(Cc2cccc(OC)n2)C(=O)c2c(F)ccc(F)c2C1=O [Example 89, 2-ethyl-5,8-difluoro-3-((6-methoxypyridin-2-yl)methyl)naphthalene-1,4-dione]	< 50	–	–
CC1=C(Cc2ccc(C(F)(F)F)cn2)C(=O)c2cc(F)c(F)cc2C1=O [Example 78, 6,7-difluoro-2-methyl-3-((5-(trifluoromethyl)pyridin-2-yl)methyl)naphthalene-1,4-dione]	–	< 50	–
[2H]C([2H])([2H])C1=C(Cc2ccc(C(F)(F)F)c(C(N)=O)n2)C(=O)c2c(F)ccc(F)c2C1=O [Example 126, 6-((5,8-difluoro-3-(methyl-d3)-1,4-dioxo-1,4-dihydronaphthalen-2-yl)methyl)-3-(trifluoromethyl)picolinamide]	< 50	–	–
CCC1=C(Cc2ccc(F)c(C#N)n2)C(=O)c2c(F)ccc(F)c2C1=O [Example 132, 6-((3-ethyl-5,8-difluoro-1,4-dioxo-1,4-dihydronaphthalen-2-yl)methyl)-3-fluoropicolinonitrile]	< 50	–	–
CCC1=C(Cc2ccc(F)cn2)C(=O)c2c(F)cc(F)cc2C1=O [Example 92, 2-ethyl-5,7-difluoro-3-((5-fluoropyridin-2-yl)methyl)naphthalene-1,4-dione]	< 50	–	–
CCC1=C(Cc2cc(C(F)(F)F)c(C)cn2)C(=O)c2c(F)ccc(F)c2C1=O [Example 66, 2-ethyl-5,8-difluoro-3-((5-methyl-4-(trifluoromethyl)pyridin-2-yl)methyl)naphthalene-1,4-dione]	< 50	–	–
CC1=C(Cc2ccc(C(F)(F)F)cn2)C(=O)c2ccc(F)c(F)c2C1=O [Example 80, 5,6-difluoro-3-methyl-2-((5-(trifluoromethyl)pyridin-2-yl)methyl)naphthalene-1,4-dione]	–	< 50	–
CCC1=C(Cc2ccc(C)c(OC)n2)C(=O)c2c(F)ccc(F)c2C1=O [Example 97, 2-ethyl-5,8-difluoro-3-((6-methoxy-5-methylpyridin-2-yl)methyl)naphthalene-1,4-dione]	< 50	–	–
